Assay [1] concerns PP-1. Put plainly: Effect of effectors on dephosphorylation of AD P-tau by PP-1 (immunoblot). To be noted: for Effect on dephosphorylation of AD P-tau by PP-1: 1.0 mM Mn2+ or 10 mM Mg2+ versus 1.0 mM EDTA, PHF-1 immunoblot (Ser-396). In kind it is biochemical, rabbit. As for the experimental part: Unless otherwise stated, dephosphorylation of AD P-tau was carried out at 30° C. in 50 mM Tris, pH 7.0, 10 mM β-mecaptoethanol, 0.1 mg/ml BSA, 50 μg/ml AD P-tau and PP-1, PP-2B or PP-2C. In some experiments, several effectors were added in the reaction mixture (see Results section). The reaction was started by addition of the enzyme. After appropriate incubation times (see Figure legends), reactions were stopped by addition of 5 volumes of cold acetone to precipitate proteins. The precipitated protein samples were dissolved in SDS-PAGE sample buffer (60 mM Tris-HCl, […], 3% SDS, 5% β-mercaptoethanol, 10% glycerol and 0.05% bromophenol blue) and heated at 95° C. for 4 min, followed by 10% SDS-PAGE.
For orientation: A western blot detects proteins with antibodies after separation by electrophoresis.

Assay [2] concerns the target T1, PP-2B (Bos taurus, UniProt P48452).
T1 construct: PP-2B (holoezyme) was purified from bovine brain according to the method of Sharma et al; from tissue; host or cells: bovine brain
Put plainly: Effect of effectors on dephosphorylation of AD P-tau by PP-2B (immunoblot). The format is biochemical, bovine. The conditions noted are these: for Activity of PP-2B towards AD P-tau with divalent cation in the presence of Ca2+ and calmodulin: 1.0 mM CaCl2, 1.0 μM calmodulin plus 1.0 mM NiCl2, 1.0 mM MnCl2 or 10 mM MgCl2; for Activity of PP-2B towards AD P-tau with divalent cation in the presence of Ca2+ and calmodulin / Magnitude of dephosphorylation of AD P-tau by PP-2B with the cation alone compared to inclusion of Ca2+ and calmodulin: Tau-1 immunoblot; for Magnitude of dephosphorylation of AD P-tau by PP-2B with the cation alone compared to inclusion of Ca2+ and calmodulin: 1.0 mM MnCl2 or 1.0 mM NiCl2 alone; for Concentration of metal ion for maximal dephosphorylation of AD P-tau by PP-2B / Concentration of metal ion that activated the dephosphorylation of AD P-tau by PP-2B: in the presence of 1.0 mM Ca2+ and 1.0 μM calmodulin. The protocol:
Rabbit skeletal muscle PP-1 was purchased from Upstate Bioteehnology Inc., Lake Placid, N.Y. Rat brain PP-2A1 and PP-2A2 were kindly provided by Dr. S. Jaspers of University of Massachusetts. […] Phosphorylase and calmodulin were purchased from Sigma, St. Louis, Mo. […] Alkaline phosphatase-conjugated goat anti-mouse and anti-rabbit IgG were purchased from Bio-Rad, Hercules, Calif.
Unless otherwise stated, dephosphorylation of AD P-tau was carried out at 30° C. in 50 mM Tris, pH 7.0, 10 mM β-mecaptoethanol, 0.1 mg/ml BSA, 50 μg/ml AD P-tau and PP-1 PP-2A or PP-2B. The reaction was started by addition of enzyme and stopped by addition of 5 volumes of cold acetone. The precipitated protein samples were dissolved in sodium dodecyl sulfate-polyacrylamide gel electrophoresis (SDS-PAGE) sample buffer and heated at 95° C. for 4 min, followed by 10% SDS-PAGE. […] Antiserum 92e is a phosphorylation-independent antibody which recognizes both AD P-tau and normal tau.

Assay [3] concerns the target T2, PP-2A1 (Rattus norvegicus, UniProt P63331).
T2 construct: PP-2A1 and PP-2A2 were purified from rat brain basically as described by Cohen et al; tissue gift of Dr. S. Jaspers, University of Massachusetts; host or cells: rat brain
Nature of the assay: Effect of Mn2+, Mg2+ and polylysine on dephosphorylation of AD P-tau by PP-2A1. The format is biochemical. The conditions noted are these: 2.0 mM MnCl2, 2.0 mM MgCl2 or 10 μM polylysine versus 1.0 mM EDTA; Tau-1 immunoblot. The text has this:
(§1) Phosphorylase, calmodulin, and poly-L-lysine (molecular weight 4,000-15,000) were purchased from Sigma, St. Louis, Mo. […] L. 1. Binder, University of Alabama, Birmingham, Ala.; A. Van de Voorde, Innogenetics, Industriepark Zwijinaarde, Belgium; and S. Greenberg, Burke Medical Research Institute, White Plains, N.Y., respectively. SMI33, SMI31, SMI34, goat anti-mouse IgG and peroxidase-anti-peroxidase complex were purchased from Sternberger Monoclonals Inc., Baltimore, Md. Alkaline phosphatase-conjugated goat anti-mouse and anti-rabbit IgG were purchased from Bio-Rad, Hercules, Calif.
(§2) In some experiments, Mn^2+ in the reaction mixture was replaced by other effectors (see Figure legends). In the reaction mixture for PP-2B, MnCl2 was substituted with-1.0 mM NiCl2, 1.0 mM CaCl2 and 1.0 μM calmodulin. The reaction was started by the addition of enzymes. After appropriate incubation times (see Figure legends), reactions were stopped by the addition of 5 volumes of cold acetone to precipitate proteins. Dephosphorylation was monitored by immunoblotting with the phosphorylation-dependent antibodies described below.
(§3) Res. Commun. […] Antibody AT8 was used at a concentration of 2.0 μg/ml. […] The intensity of immunostaining of-some blots with Tau-1 was scanned by using a Shimadzu dual-wavelength flying-spot scanner.

In assay [4] the test system is PP-1. Nature of the assay: PP-1 activity with [32P]phosphorylase kinase as substrate. In kind it is biochemical, rabbit. To be noted: 1.0 mM Mn2+ or 10 mM Mg2+. The protocol:
(§4) For PP-2B and PP-2C activities, MnCl2 was substituted by 1.0 mM CaCl2 and 10 μM calmodulin, and 10 mM MgCl2, respectively.

Assay [5] concerns PP-2C. Nature of the assay: PP-2C activity with [32P]phosphorylase kinase as substrate. The format is biochemical, bovine. The conditions noted are these: no activity detected in the absence of Mg2+ or Mn2+. The protocol:
as §4

The target in assay [6] is T3, PP-2A2 (Rattus norvegicus, UniProt P63331). Nature of the assay: Effect of Mn2+, Mg2+ and polylysine on dephosphorylation of AD P-tau by PP-2A2. The format is biochemical. Also noted: PP-2A1 and PP-2A2 were purified from rat brain basically as described by Cohen et al; tissue gift of Dr. S. Jaspers, University of Massachusetts; host or cells: rat brain. To be noted: 2.0 mM MnCl2, 2.0 mM MgCl2 or 10 μM polylysine versus 1.0 mM EDTA; Tau-1 immunoblot.
T3 sequence (P63331 whole entry): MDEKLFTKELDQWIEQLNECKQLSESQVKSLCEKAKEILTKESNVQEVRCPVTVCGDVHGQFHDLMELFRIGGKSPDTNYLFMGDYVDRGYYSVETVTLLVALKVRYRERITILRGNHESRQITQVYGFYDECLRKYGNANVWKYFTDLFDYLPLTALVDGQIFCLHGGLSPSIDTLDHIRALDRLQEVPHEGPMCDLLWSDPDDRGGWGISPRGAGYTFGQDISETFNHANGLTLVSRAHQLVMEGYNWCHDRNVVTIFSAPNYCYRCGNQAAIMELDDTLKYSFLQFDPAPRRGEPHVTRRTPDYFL
T3 sequence (Q5XI34 1-589 partner): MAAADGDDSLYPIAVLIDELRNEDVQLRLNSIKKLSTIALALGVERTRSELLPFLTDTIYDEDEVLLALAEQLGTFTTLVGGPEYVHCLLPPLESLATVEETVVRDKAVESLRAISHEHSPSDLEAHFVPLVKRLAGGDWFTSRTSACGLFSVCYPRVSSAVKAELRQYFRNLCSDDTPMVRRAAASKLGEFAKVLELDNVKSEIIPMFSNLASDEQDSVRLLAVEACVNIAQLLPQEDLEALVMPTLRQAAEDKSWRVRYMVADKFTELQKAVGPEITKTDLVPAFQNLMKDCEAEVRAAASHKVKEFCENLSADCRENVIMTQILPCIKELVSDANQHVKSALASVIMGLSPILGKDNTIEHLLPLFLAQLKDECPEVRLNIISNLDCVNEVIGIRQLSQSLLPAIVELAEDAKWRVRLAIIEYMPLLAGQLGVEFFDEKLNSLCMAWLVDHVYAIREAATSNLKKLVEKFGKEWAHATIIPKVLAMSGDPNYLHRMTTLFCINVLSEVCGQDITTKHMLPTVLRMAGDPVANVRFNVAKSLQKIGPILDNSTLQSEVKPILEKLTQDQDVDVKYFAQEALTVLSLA
Source text: as §1, §2, §3

Assay [7] concerns PP-2A. Nature of the assay: Effect of effectors on dephosphorylation of AD P-tau by PP-2A (immunoblot). The format is biochemical, rat.
Source text: as §1, §2, §3

Assay [8] deals with T2, PP-2A1. Nature of the assay: PP-2A1 activity with [32P]phosphorylase as substrate. The format is biochemical. To be noted: data not shown.
Assay [9] deals with T3, PP-2A2. The conditions noted are these: data not shown.

T2 sequence (P63331 whole entry): as the sequence (P63331 whole entry) above
T2 sequence (Q5XI34 1-589 partner): as the sequence (Q5XI34 1-589 partner) above
T2 sequence (P36876 whole entry partner): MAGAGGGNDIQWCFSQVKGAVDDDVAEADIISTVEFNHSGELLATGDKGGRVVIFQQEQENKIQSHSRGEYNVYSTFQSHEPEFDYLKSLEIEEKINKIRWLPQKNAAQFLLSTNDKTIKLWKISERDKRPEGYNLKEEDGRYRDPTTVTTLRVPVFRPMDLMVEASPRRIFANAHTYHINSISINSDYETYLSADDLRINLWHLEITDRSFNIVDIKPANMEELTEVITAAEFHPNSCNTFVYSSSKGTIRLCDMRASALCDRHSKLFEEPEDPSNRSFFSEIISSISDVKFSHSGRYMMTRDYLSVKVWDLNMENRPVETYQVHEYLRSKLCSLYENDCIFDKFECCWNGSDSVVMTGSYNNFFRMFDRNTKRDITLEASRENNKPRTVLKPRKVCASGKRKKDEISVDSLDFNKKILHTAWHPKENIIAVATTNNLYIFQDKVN

As for `[Mg+2]` [Mg^2+, reference compound], the “Effect on dephosphorylation of AD P-tau by PP-1” value in assay [1] is “inhibited”. In assay [2], the “Activity of PP-2B towards AD P-tau with divalent cation in the presence of Ca2+ and calmodulin” value (from here on “Activity of PP-2B towards AD P-tau”) is “lower”. Also, in assay [3], the “Effect on activity of PP-2A1 towards AD P-tau” value is “no detectable effect”. In addition, the “Effect on PP-1 activity with [32P]phosphorylase kinase as substrate” value in assay [4] is “inhibited”. The “Metal dependence of PP-2C activity with [32P]phosphorylase kinase as substrate” value in [5] is given as “dependent”. Also, the “Effect on activity of PP-2A2 towards AD P-tau” value in assay [6] is listed as “no detectable effect”.

On to `[Mn+2]` [Mn^2+, manganese], for which, in [1], the “Effect on AD P-tau dephosphorylation by PP-1” value is reported as “↑ ↑” and the “Effect on dephosphorylation of AD P-tau by PP-1” value is listed as “strongly activated”. Besides, in [1] (data not shown), the “Concentration at which activation of AD P-tau dephosphorylation by PP-1 reached maximum” value is given as “about 100 μM” and the “Concentration at which activation of AD P-tau dephosphorylation by PP-1 was observed” value was 10 µM. The “Effect on AD P-tau dephosphorylation by PP-2A” value in [7] is listed as “↑ ↑”. Besides, in assay [2], the “Effect on AD P-tau dephosphorylation by PP-2B” value is “↑ ↑”; the “Activity of PP-2B towards AD P-tau” value is recorded as “lower”; the “Magnitude of dephosphorylation of AD P-tau by PP-2B with the cation alone compared to inclusion of Ca2+ and calmodulin” value is “lower”; the “Concentration of metal ion for maximal dephosphorylation of AD P-tau by PP-2B” value was found to be 100 µM. For the same compound, in [2], the “Concentration of metal ion that activated the dephosphorylation of AD P-tau by PP-2B” value is 10 FM. Further, in [3], the “Effect on activity of PP-2A1 towards AD P-tau” value is “markedly stimulated”. Besides, the “Effect on PP-2A1 activity with [32P]phosphorylase as substrate” value in [8] is “almost no effect”. Further, in [4], the “Effect on PP-1 activity with [32P]phosphorylase kinase as substrate” value is “activated”. For the same compound, in assay [5], the “Metal dependence of PP-2C activity with [32P]phosphorylase kinase as substrate” value is reported as “dependent”. In addition, in assay [9], the “Effect on PP-2A2 activity with [32P]phosphorylase as substrate” value is recorded as “stimulated PP-2A2 much more strongly than polylysine did”. For the same compound, the “Effect on activity of PP-2A2 towards AD P-tau” value in assay [6] is listed as “markedly stimulated”.

With `C=C1[C@@H](O)[C@@H]2O[C@]3(CC[C@H](/C=C/[C@@H](C)[C@@H]4CC(C)=C[C@@]5(O[C@H](C[C@@](C)(O)C(=O)O)CC[C@H]5O)O4)O3)CC[C@H]2O[C@@H]1[C@@H](O)C[C@H](C)[C@H]1O[C@@]2(CCCCO2)CC[C@H]1C` [okadaic acid, reference compound], the “Unmasking of Tau-1 epitope of AD P-tau by PP-2A in the presence of the inhibitor” value in assay [7] (1.0 μM okadaic acid, 5.0 U/ml PP-2A2, 30° C., 60 min) was “did not unmask Tau-1 epitope”.

For `[Ca+2]` [Ca^2+], in [2] (1.0 mM CaCl2 and 1.0 μM calmodulin, no other cation), the “Dephosphorylation of tau by PP-2B in the presence of Ca2+ and calmodulin alone” value is listed as “no apparent dephosphorylation”.

poly-L-lysine [Polylysine]: the “Effect on activity of PP-2A1 towards AD P-tau” value in assay [3] is “strongly activated”. In addition, the “Effect on PP-2A1 activity with [32P]phosphorylase as substrate” value in [8] is given as “slightly stimulated”. In addition, in assay [6], the “Effect on activity of PP-2A2 towards AD P-tau” value is on record as “only slightly activated”.

Take `[Ni+2]` [Ni^2+]: in assay [2], the “Effect on AD P-tau dephosphorylation by PP-2B” value is on record as “↑ ↑”; the “Activity of PP-2B towards AD P-tau” value is “highest activity”; the “Magnitude of dephosphorylation of AD P-tau by PP-2B with the cation alone compared to inclusion of Ca2+ and calmodulin” value is given as “lower”; the “Concentration of metal ion for maximal dephosphorylation of AD P-tau by PP-2B” value is 100 µM. In addition, the “Concentration of metal ion that activated the dephosphorylation of AD P-tau by PP-2B” value in assay [2] came to 10 FM.

(Values after patent publication US20030165575A1, “Methods and compositions for treatment and diagnosis of alzheimer disease and other disorders” (Research Foundation for Mental Hygeine, Inc., priority 1994, published 2003).)
